According to patent US20190197375A1, “TRACEABLE METALLIC PRODUCTS AND METALLIC SUPPORT FOR NANOSTORAGE” (9163-0384 QUEBÉC INC., priority 2013, published 2019):

What was measured:
S. aureus [1] = assay: Long term conservation: antibacterial activity of impregnated anodized aluminum disks after storage; type: cell-based; conditions: disks impregnated 4 years ago, 2.12% w/v; deposition 5 min on agar plate lawn
Description: An experiment was designed to evaluate the presence and integrity of samples stored in the anodized metallic support.
The antimicrobial activity was measured by diffusion of the antimicrobial benzalkonium following deposition for 5 min on an agar plate lawn of S. aureus (results not shown).

S. aureus [2] = assay: Antibacterial activity of anodized disk impregnated with benzalkonium chloride, deposited 5 min on agar plate lawn; type: cell-based; conditions: anodized disk soaked 10 min, FIG. 4
Description: Anodized and non-anodized aluminum disks were compared for incorporation/storage and recovery/diffusion of a chemical antibacterial compound. Briefly, anodized and non-anodized disks were prepared as described hereinbefore. The disks were then impregnated or not with benzalkonium chloride (an antibacterial) by soaking 10 min at room temperature and rinsed several times with water.
The disks were then tested for diffusion of the antimicrobial benzalkonium by measuring their respective antibacterial activity when deposited for 5 min on an agar plate lawn of S. aureus. […] This confirms incorporation and subsequent release of the antibacterial chemical from the anodized porous surface layer.

## benzalkonium chloride
S. aureus [1]
  Antibacterial activity after storage in anodized aluminum disks: still possible to measure antibacterial activity
S. aureus [2]
  Inhibition of bacterial growth by impregnated anodized disk: successfully inhibited bacterial growth
